From patent US20210205348A1, “Methods for the Treatment of Bladder Cancer” (Eisai R&D Management Co., Ltd., priority 2018, published 2021)

What was measured:
CT26 tumor cells [1] = test: CT26 liver metastatic model; details: 10 mg/kg intratumorally, a single time
[2] = system: hepatocytes of Cynomoigus monkey; test: Hepatocyte incubation, identification of potential metabolites; assay type: in vitro ADME; details: 10 μmol/L
Procedure: (§1) Prior to incubations, the cryopreserved hepatocytes were thawed in a water bath at 37° C. One tube of cryopreserved hepatocytes was added to each 50-mL conical tube of cryopreserved hepatocyte recovery medium (UCRM) obtained from In Vitro ADMET Laboratories (Columbia, Md.). The cells were spun in a Beckman centrifuge (Brea, Calif.) with a GH 3.8 rotor at 740 rpm for 10 minutes at […]. The supernatant was removed and the cells were re-suspended in plating media for counting. After the cells were re-suspended in plating media, 20 μL of the re-suspension was transferred and mixed with 20 μL of AOPI staining solution. The solution was gently mixed and cells were counted using a Cellometer (Nexcelom, Lawrence, Mass.). After counting, the cells were then re-suspended at 1 or 2 million viable cells/mL in Williams' E media containing 2 mmol/L L-glutamine (pH 7.4).
(§2) The hepatocyte suspension (50 μL/well) was added into a 48-well plate. […] The plate was placed into a tissue culture incubator (5% CO2/95% air humidified atmosphere and 37° C.), and the reactions were terminated with 200 μL of stop solution consisting of 100% methanol/acetonitrile (1/1, v/v) with 2010 ng/mL furosemide and 0.2 μmol/L (R)-propranolol at 5, 30, 60, 120, 180 and 240 minutes. The mixture was centrifuged and filtered, and the supernatant was collected for analysis. The final concentrations of cryopreserved hepatocytes were 1×10^6 cells/mL.
(§3) The LC-MS/MS system was composed of a Shimadzu HPLC and an AB-SCIEX TripleTOF 5600 hybrid quadrupole and TOF mass spectrometer (Framingham, Mass.). The Shimadzu HPLC (Kyoto, Japan), consisted of a communications bus module (CBM-20A), an auto-sampler (SIL-30AC) with an attached rack changer (Rack Changer II) two pumps (LC-30AD) and a column oven (CTO-30A). The mass spectrometer was calibrated using the AB-SCIEX APCI both Negative and Positive Calibration Solutions (Framingham, Mass.). The samples obtained from incubations with hepatocytes were analyzed under both negative and positive scan modes. The basic analytical method and instrumental conditions are summarized below. Modification of the spectrometer settings was dependent on the necessity of the analyte.
(§4) Mass spectrometry data were acquired using AB-Sciex Analyst TF (Version 1.5.1; Framingham, Mass.). Chromatograms and spectra were obtained using AB-Sciex PeakView (Version 2.2.0.1; Framingham, Mass.). The comparison of relative peak areas for extracted ion chromatograms were based on ±0.0002 Da of the expected exact mass-to-charge ratio (m/z) for each analyte of interest.

[3] = system: hepatocytes of CD-1 mouse; test: as above; assay type: in vitro ADME; details: 10 μmol/L
Procedure: as §1, §2, §3, §4

[4] = system: hepatocytes of Sprague Dawley rat; test: as above; assay type: in vitro ADME; details: 10 μmol/L
Procedure: as §1, §2, §3, §4

hepatocytes of human = test: as above; assay type: in vitro ADME; details: 10 μmol/L
Procedure: as §1, §2, §3, §4

[5] = system: hepatocytes of Beagle dog; test: as above; assay type: in vitro ADME; details: 10 μmol/L
Procedure: as §1, §2, §3, §4

CT26 tumor cells [6] = test: CT26 dual tumor model (mouse colon cancer model)
Procedure: For study B, treatment was started 8 days (0.6 mg/kg, and 10 mg/kg) after the tumor implantation, when the average tumors reached approximately 120 mm^3.
All the mice in the study have two subcutaneous CT26 tumors. The “treated tumor” indicates the tumor with compound direct administration, while “untreated tumor” indicates the tumor without direct compound administration. Tumor volume was followed throughout the experiment. Tumor volume is measured two times weekly after the start of treatment. Tumor burden is calculated from caliper measurements by the formula for the volume of a prolate ellipsoid (L×W^2)/2 where L and W are the respective orthogonal length and width measurements (mm),

IFNβ = test: Ex vivo human PBMC stimulation assay, IFNβ protein; assay type: cell-based; details: 24 hours, average of five donors
Procedure: Human blood from 5 healthy donors was collected using 10.0 mL BD Vacutainer Sodium heparin tubes (cat #367874). Peripheral blood mononuclear cell (PBMC) isolation was done using SIGMA ACCUSPIN 50 ml Tubes (cat #A2055) and sigma ACCUSPIN System-HISTOPAQUE-1077 (cat #A7054) using protocol provided by manufacturer. […] PBMC were counted and finally suspended @ 1x10e6/ml in RPMI (corning cat #10-041-CV supplemented with 10% fetal bovine serum (FBS) (Gibco cat #20140.79). 1ml of cell (1×10e6) were transferred into Falcon 5 mL Round Bottom Polypropylene Test Tube (cat #352063) and stimulated with different concentrations (0, 0.1, 1, 10 uM) for 24 hours in 5% CO2 incubator at 37° C.
After 24 hours of incubation the tubes were centrifuged at 1400 rpm for 5 minutes and supernatants were harvested. Supernatant were stored in −80° C. for subsequent IFNβ measurement. IFNβ measurement was done using Human IFN-β Base Kit (Meso Scale Diagnostics cat #K151ADA) and protocol provided by manufacturer was used. IFN-beta estimation was done by reading assay plate at MESO SECTOR Imager 2400 and using MSD Discovery Workbench 4.0 program. After 24 hours IFNβ protein was analyzed.
Results shown in Table 3 reflect an average of measurements conducted using five different donors.

GL261 mouse glioma cells = test: GL261 brain orthotopic model; assay type: in vivo; details: 10 mg/kg intratumorally, a single time
Excerpt: GL261 is a murine glioma cell line.

MBT-2 tumor cells = test: MBT-2 murine bladder cancer orthotopic model; assay type: in vivo, mouse
Procedure: The protocol with HCl pre-treatment procedure described by Lee, et al. was applied to establish the model. In brief, 30 μL 0.1 N HCl solution was injected into mouse bladder through a catheter and HCl solution was allowed to remain in the bladder for 15 seconds. Then the HCl solution was replaced by 30 μL 0.1N NaOH solution followed by one flushing step with 1 X PBS (pH7.4). The follow-up tumor cell implantation procedure was modified from the original literature. In brief, after a flushing step, MBT-2 tumor cells (2 ×10^6 cells in 50 μL RPMI1640 medium) were instilled into the bladder and allowed to remain for 45 minutes. At the end of this 45 minute period, the bladder was drained.
On each day of dosing BCG was diluted in NaCl 0.9% (Lavoisier, France) to reach the final concentration of 16.875 mg/mL for dosing. Any leftover dosing solution was discarded after use. For anti-PD-1 antibody, 1 x PBS (Lonza, France) was used to dilute the stock solution to prepare 1 mg/mL working solution for dosing.
From days 20-21, tumor growth in bladder was quantitated by MRI (Magnetic resonance imaging) and tumor sizes of all mice were graphed as shown in FIG. 7.

Compound: O=P1(S)OCC2OC3C(F)C2OP(=O)(S)OCC2OC(C(F)C2O1)n1cnc2c(ncnc21)NCC=CCNc1ncnc2c1ncn23 (centres unmarked) [Compound 1a]
- activity towards the local sc tumors (CT26 tumor cells [1]): potent activity
- curative systemic activity (treated animals) (CT26 tumor cells [1]; into the sc tumor): 9 of 10
- formation of major metabolites ([2]; monkey hepatocytes, LC-MS/MS): No apparent metabolite
- stability in incubations with hepatocytes ([2]; monkey, up to 240 minutes): stable
- formation of major metabolites ([3]; mouse hepatocytes, LC-MS/MS): No apparent metabolite
- stability in incubations with hepatocytes ([3]; mouse, up to 240 minutes): stable
- formation of major metabolites ([4]; rat hepatocytes, LC-MS/MS): No apparent metabolite
- stability in incubations with hepatocytes ([4]; rat, up to 240 minutes): stable
- formation of major metabolites (hepatocytes of human; human hepatocytes, LC-MS/MS): No apparent metabolite
- stability in incubations with hepatocytes (hepatocytes of human; human, up to 240 minutes): stable
- formation of major metabolites ([5]; dog hepatocytes, LC-MS/MS): No apparent metabolite
- stability in incubations with hepatocytes ([5]; dog, up to 240 minutes): stable
- cure rate, treated tumors (CT26 tumor cells [6]; 0.6 mg/kg I.T. single dose): 20%
- curative effects, untreated tumors (CT26 tumor cells [6]; 10 mg/kg I.T. single dose): 80%
- animals cured, treated tumors (CT26 tumor cells [6]; 10 mg/kg I.T. single dose, end of study): 100%
- effect on untreated tumors (CT26 tumor cells [6]; all the lower doses (0.6 to 5 mg/kg) I.T. single dose): tumor growth inhibition activity
- IFNβ (IFNβ; 0.1 μM): 21.3 ± 17.8 pg/mL
- IFNβ (IFNβ; 1 μM): 227.5 ± 62.4 pg/mL
- IFNβ (IFNβ; 10 μM): 540.2 ± 215.0 pg/mL
- activity at local sc tumors (GL261 mouse glioma cells): potent activity
- curative systemic activity (treated animals) (GL261 mouse glioma cells; into the sc tumor): 5 of 8
- tumor volumes quantified by MRI (MBT-2 tumor cells; days 20-21, 100, 200, 400 μg/mouse IVe Q7Dx3, also 400 μg/mouse with PD1 antibody (Groups 4 to 7), vs vehicle, BCG and PD1 antibody groups): much smaller tumor volumes
- survival relative to vehicle treated animals (MBT-2 tumor cells; intravesicular, Q7Dx3 (FIG. 8)): statistically significant survival benefit
